According to ChEMBL document CHEMBL2073788, “Troglitazone-induced intrahepatic cholestasis by an interference with the hepatobiliary export of bile acids in male and female rats. Correlation with the gender difference in troglitazone sulfate formation and the inhibition of the canalicular bile salt export pump (Bsep) by troglitazone and …” (Toxicology, 2001):
Where a name gives a salt, the structure may show the parent alone.

Legend:
Bile salt export pump [1] = target: T1, Bile salt export pump (Rattus norvegicus, UniProt O70127); experiment: TP_TRANSPORTER: inhibition of Taurocholate uptake (Taurocholate: 1 uM) in liver canalicular membrane vesicle from male rat; format: functional, cell membranes
T1 sequence (O70127 whole entry): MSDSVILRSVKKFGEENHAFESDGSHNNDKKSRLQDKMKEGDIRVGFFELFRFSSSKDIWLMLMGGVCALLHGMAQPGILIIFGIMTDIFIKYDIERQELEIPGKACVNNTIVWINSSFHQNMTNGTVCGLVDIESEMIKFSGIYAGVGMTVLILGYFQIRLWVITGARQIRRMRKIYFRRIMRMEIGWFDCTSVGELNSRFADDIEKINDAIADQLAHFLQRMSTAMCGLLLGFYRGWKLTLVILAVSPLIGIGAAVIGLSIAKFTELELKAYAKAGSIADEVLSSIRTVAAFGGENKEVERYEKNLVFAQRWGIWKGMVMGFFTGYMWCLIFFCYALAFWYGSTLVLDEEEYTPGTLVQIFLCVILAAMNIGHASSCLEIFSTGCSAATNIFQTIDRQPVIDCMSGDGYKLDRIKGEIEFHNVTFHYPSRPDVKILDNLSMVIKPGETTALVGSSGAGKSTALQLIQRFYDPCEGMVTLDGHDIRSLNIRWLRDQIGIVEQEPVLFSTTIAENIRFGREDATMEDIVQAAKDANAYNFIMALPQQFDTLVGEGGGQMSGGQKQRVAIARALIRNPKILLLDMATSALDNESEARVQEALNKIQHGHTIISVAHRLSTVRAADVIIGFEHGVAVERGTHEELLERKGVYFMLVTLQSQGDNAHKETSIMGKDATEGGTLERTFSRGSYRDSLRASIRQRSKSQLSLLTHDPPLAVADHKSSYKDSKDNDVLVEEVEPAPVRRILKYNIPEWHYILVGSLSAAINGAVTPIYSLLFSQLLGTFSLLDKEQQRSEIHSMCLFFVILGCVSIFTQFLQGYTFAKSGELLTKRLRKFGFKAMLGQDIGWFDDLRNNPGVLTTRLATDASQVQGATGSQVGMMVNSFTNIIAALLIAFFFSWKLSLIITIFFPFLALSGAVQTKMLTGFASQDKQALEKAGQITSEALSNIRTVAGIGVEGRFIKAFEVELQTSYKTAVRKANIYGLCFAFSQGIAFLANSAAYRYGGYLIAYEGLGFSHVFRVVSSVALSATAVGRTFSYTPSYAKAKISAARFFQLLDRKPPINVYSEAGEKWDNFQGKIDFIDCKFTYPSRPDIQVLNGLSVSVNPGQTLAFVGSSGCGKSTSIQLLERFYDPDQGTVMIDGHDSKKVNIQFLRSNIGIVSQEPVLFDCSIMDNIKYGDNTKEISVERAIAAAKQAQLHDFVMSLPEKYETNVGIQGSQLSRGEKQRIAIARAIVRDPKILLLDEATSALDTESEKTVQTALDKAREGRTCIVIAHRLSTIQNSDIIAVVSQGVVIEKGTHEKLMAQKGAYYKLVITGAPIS

Bile salt export pump [2] = target: T1, Bile salt export pump; experiment: TP_TRANSPORTER: inhibition of Taurocholate uptake (Taurocholate: 1 uM) in liver canalicular membrane vesicle from female rat; format: functional, cell membranes

Row | IC50 (Bile salt export pump [1]) [µM] | IC50 (Bile salt export pump [2]) [µM] | SMILES
1 | 8.6 | 15.7 | COc1ccc(Cl)cc1C(=O)NCCc1ccc(S(=O)(=O)NC(=O)NC2CCCCC2)cc1 [GLYBURIDE]
2 | 0.4 | 0.6 | Cc1c(C)c2c(c(C)c1OS(=O)(=O)O)CCC(C)(COc1ccc(CC3SC(=O)NC3=O)cc1)O2 (stereo not given) [TROGLITAZONE SULFATE]
3 | – | 3.9 | Cc1c(C)c2c(c(C)c1O)CCC(C)(COc1ccc(CC3SC(=O)NC3=O)cc1)O2 (stereo not given) [TROGLITAZONE]
